Experimental data: publication PMC8954846, “Molecular Characterisation of Flavanone O-methylation in Eucalyptus” (International Journal of Molecular Sciences, 2022)
Read-outs that look alike come from different tables or passages of the source.

Tests used:
EcOMT1 = system: T1, EcOMT1; assay: methyltransferase assay, RP-HPLC of pinostrobin formed, Michaelis-Menten fit; assay type: biochemical, Eucalyptus croajingolensis; settings: crude recombinant E. coli extract; SAM; 50 mM potassium phosphate pH 7, 30 °C; read-out: apparent Km app
T1 construct: gene OMT1; full-length

EnOMT1 = system: T2, EnOMT1; assay: as above; assay type: biochemical, Eucalyptus nitida; settings: crude recombinant E. coli extract, 50 mM potassium phosphate pH 7, 30 °C, read-out: apparent Km
T2 construct: gene OMT1; full-length, 349 residues; E. coli BL21 (DE3)

EmOMT1 = system: T3, EmOMT1; assay: methyltransferase assay, RP-HPLC, extrapolated non-linear regression; assay type: biochemical, Eucalyptus mitchelliana; settings: crude recombinant E. coli extract, SAM, 50 mM potassium phosphate pH 7, 30 °C, 16 h incubation needed for product, read-out: apparent Km
T3 construct: gene OMT1; full-length

Km (EcOMT1) [µM] | Km (EnOMT1; 100 μM SAM, kcat from His-affinity purified enzyme) [µM] | Km (EmOMT1) [µM] | Km (EnOMT1; 50 μM pinocembrin, methyl donor) [µM] | SMILES
2.55 ± 0.38 | 2.05 ± 0.16 | > 800 | – | O=C1C[C@@H](c2ccccc2)Oc2cc(O)cc(O)c21 [pinocembrin]
– | – | – | 4.99 ± 0.29 | C[S+](CC[C@H](N)C(=O)O)C[C@H]1O[C@@H](n2cnc3c(N)ncnc32)[C@H](O)[C@@H]1O (stereo partly shown) [S-adenosylmethionine]
